Counter-ions that a name gives are not always drawn.
Target: MK-2 (Homo sapiens, UniProt P49137)
Assay: Determination of MK-2 IC50 (anion exchange resin capture assay, HSP-peptide phosphorylation)
Type: biochemical
Details: read-out: MK-2 Avg. IC50
Procedure: The phosphorylation of HSP-peptide ([sequence]) by MAPKAPK2 was measured using an anion exchange resin capture assay method. […] The reaction was terminated and [γ^33P]ATP was removed from solution by the addition of 150 μl of AG 1×8 ion exchange resin in 900 mM sodium formate pH 3.0. A 50 μl aliquot of head volume was removed from the quenched reaction mixture and added to a 96-well plate, 150 μl of Microscint-40 (Packard) was added and the amount of phosphorylated-peptide was determined. Allow the Microscint to sit in the plates for 60 minutes prior to counting.
Compounds are evaluated as potential inhibitors of the MK2 kinase by measuring their effects on MK2 phosphorylation of the peptide substrate. Compounds may be screened initially at two concentrations prior to determination of IC50 values. Screening results are expressed as percent inhibition at the concentrations of compound tested. For IC50 value determinations, compounds are tested at six concentrations in ten-fold serial dilutions with each concentration tested in triplicate. Results are expressed as IC50 values in micromolar. The assay is performed at a final concentration of 2% DMSO.
Compounds are evaluated as potential inhibitors of the MK-2 kinase by measuring their effects on MK-2 phosphorylation of the peptide substrate. Compounds may be screened initially at two concentrations prior to determination of IC50 values. Screening results are expressed as percent inhibition at the concentrations of compound tested. For IC50 value determinations, compounds are tested at six concentrations in ten-fold serial dilutions with each concentration tested in triplicate. Results are expressed as IC50 values in micromolar. The assay is performed at a final concentration of 2% DMSO.

Chain of MK-2 (P49137 whole entry, species assumed): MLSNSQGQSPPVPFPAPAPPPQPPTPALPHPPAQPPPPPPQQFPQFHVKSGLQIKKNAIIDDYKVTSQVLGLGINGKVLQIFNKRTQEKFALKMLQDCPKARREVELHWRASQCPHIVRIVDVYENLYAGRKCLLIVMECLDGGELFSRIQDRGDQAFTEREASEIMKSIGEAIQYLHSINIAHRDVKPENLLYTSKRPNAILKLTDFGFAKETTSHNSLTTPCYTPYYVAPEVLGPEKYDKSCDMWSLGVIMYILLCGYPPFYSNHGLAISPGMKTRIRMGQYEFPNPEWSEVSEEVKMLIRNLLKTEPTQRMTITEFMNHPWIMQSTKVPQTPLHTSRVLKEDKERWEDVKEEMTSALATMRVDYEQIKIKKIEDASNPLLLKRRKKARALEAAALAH

## 2-[2-(2H-1,2,3-triazol-2-yl)pyridin-4-yl]-6,7- dihydropyrazolo[1,5-a]pyrazin-4(5H)-one compound with 2-[2-(1H-1,2,3-triazol-1- yl)pyridin-4-yl]-6,7-dihydropyrazolo[1,5- a]pyrazin-4(5H)-one (1:1) [Example 109]
  IC50: 5210 nM

## NCCn1nc(-c2ccnc(-c3cnc4ccccc4c3)c2)cc1C(=O)O [Example 1, dihydrochloride]
  IC50: 26.9 nM

## NCCCn1nc(-c2ccnc(-c3cccc([N+](=O)[O-])c3)c2)cc1C(=O)O [Example 2, dihydrochloride]
  IC50: 39.7 nM

## NCC1Cn2nc(-c3ccnc(-c4cnc5ccccc5c4)c3)cc2C(=O)N1 (centres unmarked) [Example 3, trifluoroacetate]
  IC50: 47.7 nM

## O=C1NC(CO)Cn2nc(-c3ccnc(-c4cnc5ccccc5c4)c3)cc21 (centres unmarked) [Example 6]
  IC50: 61.5 nM

## NCCCn1nc(-c2ccnc(-c3cnc4ccccc4c3)c2)cc1C(=O)O [Example 7]
  IC50: 68.6 nM

## NCCCn1nc(-c2ccnc(-c3ccc(O)cc3)c2)cc1C(=O)O [Example 8]
  IC50: 102 nM

## NCCn1nc(-c2ccnc(-c3cccc([N+](=O)[O-])c3)c2)cc1C(=O)O [Example 9]
  IC50: 109 nM

## CN(C)c1ccc(-c2cc(-c3cc(C(=O)O)n(CCN)n3)ccn2)cc1 [Example 10]
  IC50: 117 nM

## NCCn1nc(-c2ccnc(-c3ccc(OC(F)(F)F)cc3)c2)cc1C(=O)O [Example 11]
  IC50: 161 nM

## COc1ccc(-c2cc(-c3cc(C(=O)O)n(CCN)n3)ccn2)cc1 [Example 12, trifluoroacetate]
  IC50: 168 nM

## O=C1NCCn2nc(-c3ccnc(-c4cccc([N+](=O)[O-])c4)c3)cc21 [Example 13, dihydrochloride]
  IC50: 171 nM

## O=C1NCCn2nc(-c3ccnc(-c4ccc5ccncc5c4)c3)cc21 [Example 14]
  IC50: 194 nM

## COc1ccc(-c2cc(-c3cc(C(=O)O)n(CCCN)n3)ccn2)cc1 [Example 15, trifluoroacetate]
  IC50: 196 nM

## O=C1NCCn2nc(-c3ccnc(-c4ccc5[nH]ncc5c4)c3)cc21 [Example 16]
  IC50: 199 nM

## O=C1NCCn2nc(-c3ccnc(/C=C/c4cccnc4)c3)cc21 [Example 18, dihydrochloride]
  IC50: 212 nM

## O=C1NCCn2nc(-c3ccnc(-c4cnc5ccccc5c4)c3)cc21 [Example 19, dihydrochloride]
  IC50: 216 nM

## COc1cccc(-c2cc(-c3cc(C(=O)O)n(CCN)n3)ccn2)c1 [Example 20, dihydrochloride]
  IC50: 217 nM

## O=C1NCCn2nc(-c3ccnc(-c4ccc5ncccc5c4)c3)cc21 [Example 23, dihydrochloride]
  IC50: 298 nM

## O=C(O)c1cc(-c2ccnc(/C=C/c3ccccc3)c2)nn1CCCNCCc1ccc(Br)cc1 [Example 25, trifluoroacetate]
  IC50: 315 nM

## COc1ccc(-c2cc(-c3cc4n(n3)CCNC4=O)ccn2)cc1 [Example 26, dihydrochloride]
  IC50: 318 nM

## O=C1NCCn2nc(-c3ccnc(/C=C/c4ccccc4)c3)cc21 [Example 28]
  IC50: 371 nM

## O=C1NCCn2nc(-c3ccnc(-c4ccc(Cl)s4)c3)cc21 [Example 29]
  IC50: 444 nM

## COc1ccc(-c2cc(-c3cc4n(n3)CCNC4=O)ccn2)cc1F [Example 30]
  IC50: 471 nM

## Cn1ccc2cc(-c3cc(-c4cc5n(n4)CCNC5=O)ccn3)ccc21 [Example 32]
  IC50: 479 nM

## O=C1NCCn2nc(-c3ccnc(-c4cccc(F)c4)c3)cc21 [Example 33, hydrochloride]
  IC50: 505 nM

## O=C1NCCn2nc(-c3ccnc(-c4cccc(O)c4)c3)cc21 [Example 35, trifluoroacetate]
  IC50: 520 nM

## O=C1NCCn2nc(-c3ccnc(-c4ccc5c(c4)CCO5)c3)cc21 [Example 36, trifluoroacetate]
  IC50: 521 nM

## O=C1NCCn2nc(-c3ccnc(-c4ccc5occc5c4)c3)cc21 [Example 37, trifluoroacetate]
  IC50: 543 nM

## O=C1Cc2cc(-c3cc(-c4cc5n(n4)CCNC5=O)ccn3)ccc2N1 [Example 38, trifluoroacetate]
  IC50: 554 nM

## O=C1NCCCn2nc(-c3ccnc(-c4cnc5ccccc5c4)c3)cc21 [Example 39, trifluoroacetate]
  IC50: 577 nM

## O=C1NCCn2nc(-c3ccnc(-c4cccnc4)c3)cc21 [Example 41, dihydrochloride]
  IC50: 586 nM

## O=C1NCCn2nc(-c3ccnc(-c4ccc(O)cc4)c3)cc21 [Example 42, trifluoroacetate]
  IC50: 611 nM

## O=C1NCCn2nc(-c3ccnc(-c4ccc(OCCN5CCOCC5)cc4)c3)cc21 [Example 43, dihydrochloride]
  IC50: 630 nM

## O=C1NCCn2nc(-c3ccnc(-c4cccc(Cl)c4)c3)cc21 [Example 44, trifluoroacetate]
  IC50: 638 nM

## NCCn1nc(-c2ccncc2)cc1C(=O)O [Example 45, trifluoroacetate]
  IC50: 735 nM

## CN(C)CCOc1ccc(-c2cc(-c3cc4n(n3)CCNC4=O)ccn2)cc1 [Example 46, trifluoroacetate]
  IC50: 766 nM

## CS(=O)(=O)c1ccc(-c2cc(-c3cc4n(n3)CCNC4=O)ccn2)cc1 [Example 48, dihydrochloride]
  IC50: 821 nM

## O=C1NCCn2nc(-c3ccnc(-c4ccc5c(c4)CCCN5)c3)cc21 [Example 49, dihydrochloride]
  IC50: 835 nM

## COc1ccc(-c2cc(-c3cc4n(n3)CCNC4=O)ccn2)cn1 [Example 50, trifluoroacetate]
  IC50: 866 nM

## Nc1ccc(-c2cc(-c3cc4n(n3)CCNC4=O)ccn2)cc1 [Example 52, hydrochloride]
  IC50: 914 nM

## O=Cc1c[nH]c2ccc(-c3cc(-c4cc5n(n4)CCNC5=O)ccn3)cc12 [Example 53, hydrochloride]
  IC50: 923 nM

## O=C1NCCn2nc(-c3ccnc(-c4ccc(CO)cc4)c3)cc21 [Example 54, trifluoroacetate]
  IC50: 929 nM

## O=C1NCCn2nc(-c3ccnc(-c4ccc5cc[nH]c5c4)c3)cc21 [Example 55, hydrochloride]
  IC50: 930 nM

## O=C1NCCn2nc(-c3ccnc(-c4ccc5sccc5c4)c3)cc21 [Example 56, trifluoroacetate]
  IC50: 965 nM

## NC(=O)C1Cn2nc(-c3ccnc(-c4cnc5ccccc5c4)c3)cc2C(=O)N1 (centres unmarked) [Example 57, trifluoroacetate]
  IC50: 1010 nM

## CCOC(=O)c1cc(-c2ccnc(-c3cnc4ccccc4c3)c2)nn1CCN [Example 58, hydrochloride]
  IC50: 1030 nM

## O=C1NCCn2nc(-c3ccnc(-c4ccc5c(c4)CCN5)c3)cc21 [Example 59, hydrochloride]
  IC50: 1070 nM

## COc1ccc(-c2cc(-c3cc4n(n3)CCCNC4=O)ccn2)cc1 [Example 60]
  IC50: 1090 nM

## O=C1NCCn2nc(-c3ccnc(-c4cccc(Cl)c4)c3)c(Cl)c21 [Example 61, 3-chloro-2-[2-(3-chlorophenyl)pyridin-4-yl]-6,7-dihydropyrazolo[1,5-a]pyrazin-4(5H)-one]
  IC50: 1130 nM

## O=Cc1ccc(-c2cc(-c3cc4n(n3)CCNC4=O)ccn2)cc1 [Example 62, hydrochloride]
  IC50: 1150 nM

## NCCCn1nc(-c2ccncc2)cc1C(=O)O [Example 63]
  IC50: 1160 nM

## O=C1NC(CCl)Cn2nc(-c3ccnc(-c4cnc5ccccc5c4)c3)cc21 (centres unmarked) [Example 64]
  IC50: 1170 nM

## O=C1NCCn2nc(-c3ccnc(-c4ccco4)c3)cc21 [Example 65]
  IC50: 1200 nM

## O=C1NCCCn2nc(-c3ccnc(-c4cccc([N+](=O)[O-])c4)c3)cc21 [Example 66]
  IC50: 1260 nM

## O=C1NCCn2nc(-c3ccnc(-c4nccs4)c3)cc21 [Example 67, trifluoroacetate]
  IC50: 1290 nM

## Nc1cccc(-c2cc(-c3cc4n(n3)CCNC4=O)ccn2)c1 [Example 68]
  IC50: 1300 nM

## NCCCn1nc(-c2ccnc(-c3cccc([N+](=O)[O-])c3)c2)cc1C(N)=O [Example 69]
  IC50: 1320 nM

## O=C1NCCn2nc(-c3ccnc(-n4ccnc4)c3)cc21 [Example 70, hydrochloride]
  IC50: 1360 nM

## O=C1NCCCn2nc(-c3ccnc(-c4ccc(O)cc4)c3)cc21 [Example 71, hydrochloride]
  IC50: 1370 nM

## O=C1NCCn2nc(-c3ccnc(-c4cccc(Cl)c4)c3)c(Br)c21 [Example 72, hydrochloride]
  IC50: 1390 nM

## O=C1NCCn2nc(-c3ccnc(-c4ccoc4)c3)cc21 [Example 73, hydrochloride]
  IC50: 1460 nM

## CN(C)c1ccc(-c2cc(-c3cc4n(n3)CCNC4=O)ccn2)cc1 [Example 74, hydrochloride]
  IC50: 1530 nM

## O=C1NCCn2nc(-c3ccnc(-c4ccsc4)c3)cc21 [Example 75]
  IC50: 1550 nM

## O=C1NCCn2nc(-c3ccnc(-c4ccc5c(c4)OCCO5)c3)cc21 [Example 76, trifluoroacetate]
  IC50: 1560 nM

## COc1cncc(-c2cc(-c3cc4n(n3)CCNC4=O)ccn2)c1 [Example 77, trifluoroacetate]
  IC50: 1690 nM

## CC(C)NCc1ccc(-c2cc(-c3cc4n(n3)CCNC4=O)ccn2)cc1 [Example 78]
  IC50: 1730 nM

## O=C1NCCCn2nc(-c3ccnc(-c4ccc(CO)cc4)c3)cc21 [Example 79, 2-{2-[4-(hydroxymethyl)phenyl]pyridin-4-yl}-5,6,7,8-tetrahydro-4H-pyrazolo[1,5-a][1,4]diazepin-4-one]
  IC50: 1750 nM

## CN(C)CCc1ccc(-c2cc(-c3cc4n(n3)CCNC4=O)ccn2)cc1 [Example 80, hydrochloride]
  IC50: 1980 nM

## O=C1NCCn2nc(-c3ccnc(-c4cncnc4)c3)cc21 [Example 81, hydrochloride]
  IC50: 1990 nM

## O=C1NCCn2nc(-c3ccnc(-c4ccc5c(c4)CNCC5)c3)cc21 [Example 82, trifluoroacetate]
  IC50: 2080 nM

## CS(=O)(=O)c1cccc(-c2cc(-c3cc4n(n3)CCNC4=O)ccn2)c1 [Example 83, trifluoroacetate]
  IC50: 2100 nM

## O=C1NCCn2nc(-c3ccnc(-c4cccc(OCCN5CCNCC5)c4)c3)cc21 [Example 84]
  IC50: 2130 nM

## CS(=O)(=O)Nc1cccc(-c2cc(-c3cc4n(n3)CCNC4=O)ccn2)c1 [Example 85, dihydrochloride]
  IC50: 2290 nM

## CN(C)c1ncnc2ccc(-c3cc(-c4cc5n(n4)CCNC5=O)ccn3)cc12 [Example 86]
  IC50: 2400 nM

## CN(C)CCOc1cccc(-c2cc(-c3cc4n(n3)CCNC4=O)ccn2)c1 [Example 87]
  IC50: 2400 nM

## O=C1NCCn2nc(-c3ccncc3)cc21 [Example 88]
  IC50: 2600 nM

From patent US20040152739A1, “Acyclic pyrazole compounds for the inhibition of mitogen activated protein kinase-activated protein kinase-2” (priority 2002, published 2004)
